Measurements published in ChEMBL document CHEMBL1147381, “Two new cytotoxic chalcones from Calythropsis aurea” (J Nat Prod, 1993).

How the values were obtained:
L1210 = experiment: Cytotoxicity against mouse L1210 cells after 24 hrs; assay type: functional, cell-based; conditions: L1210, 24 h
[1] = Cytotoxicity against human NCI60 cells after 2 days by XTT assay; assay type: functional; conditions: NCI60, 48 h

## COc1ccc(C(=O)/C=C/c2ccc(O)c(O)c2)c(O)c1 [CALYTHROPSIN]
L1210
  IC50: 7 µM
[1]
  GI50: 660 nM
  TGI: 19.7 µM
[1]; read-out: LC50 (the source's name)
  CC50: > 50 µM
